In this data set the test system is HEK293T cells. The data set can be described thus: Cytotoxicity assay (CCK-8). The class given is cell-based. The following applies: 24 h; for Cytotoxicity at 50 μM (in words): CCK-8, n = 5, compared with 0 μM; for Cytotoxicity within the concentration range detected (in words): peptide 1-50 μM, CCK-8, OD450, n = 5. The protocol: HEK293T cells were cultured in DMEM (10% FBS, 1% penicillin–streptomycin solution) in a 37 °C, 5% CO2 cell culture incubator until reaching the logarithmic growth phasein. As previously described, cells were seeded into a 96-well plate at 100 μL per well and pre-incubated for 48 h. After removing the medium, 10 μL of antimicrobial peptide solutions (1, 2, 5, 10, 20, and 50 μM) were added to each well with five replicate wells per concentration. The HEK293T cells cultured with DMEM (0 μM peptide) constituted the untreated group and plates with no cells were as blank group. Plates were then cultured for 24 h. Subsequently, 10 μL of CCK-8 solution was added to each well and incubated for 3 h under the same conditions using the Cell Counting Kit-8 (CCK-8, K1018, APE×BIO, Technology LLC, Houston, TX, USA). Absorbance at 450 nm was measured using a microplate reader. Cell viability was calculated using the following formula: Cell viability (%) = [Treated group OD (450) − Blank group OD (450)]/[Untreated group OD (450) − Blank group OD (450)] × 100%.

Where a SMILES comes first, the peptide text is derived from it.

As to “WKQIKFYVYNRILKKRK [P2, peptide … derived from Crassostrea gigas mucous proteins, selected by machine learning]”, the “Cytotoxicity at 50 μM (in words)” value is “significant cell death”.

`CC(C)C[C@H](NC(=O)[C@@H](N)CC(C)C)C(=O)N[C@@H](CCCNC(=N)N)C(=O)N[C@@H](CCCNC(=N)N)C(=O)N[C@@H](CCCCN)C(=O)N[C@@H](Cc1ccccc1)C(=O)N[C@@H](Cc1ccccc1)C(=O)N[C@@H](Cc1ccccc1)C(=O)O` [S2] (H-LLRRKFFF-OH; N-terminus and C-terminus assumed): the “Cytotoxicity at 10 μM (in words)” value (10 μM, CCK-8, n = 5) is recorded as “significant cytotoxic effects”. The compound also gave a Cell viability (at 10, 20 and 50 μM, CCK-8, n = 5) of at most 75%.

Regarding LLFRRRLL [S1], the “Cytotoxicity at 50 μM (in words)” value was “significant cell death”.

Turning to “KVWQRVKVKML [P3, peptide … derived from Crassostrea gigas mucous proteins, selected by machine learning]”, the “Cytotoxicity within the concentration range detected (in words)” value is reported as “no cytotoxicity”.

For the compound `CC[C@H](C)[C@H](NC(=O)[C@H](CCCCN)NC(=O)[C@H](Cc1ccc(O)cc1)NC(=O)[C@H](CCCCN)NC(=O)[C@H](CCCCN)NC(=O)[C@H](Cc1ccccc1)NC(=O)[C@H](CCCNC(=N)N)NC(=O)[C@H](CC(N)=O)NC(=O)[C@H](CCSC)NC(=O)[C@@H](NC(=O)[C@H](CC(C)C)NC(=O)[C@H](Cc1ccc(O)cc1)NC(=O)[C@@H](NC(=O)[C@H](C)NC(=O)[C@H](CCCNC(=N)N)NC(=O)[C@H](CCSC)NC(=O)[C@H](CCCCN)NC(=O)[C@H](CCCCN)NC(=O)[C@H](C)NC(=O)[C@H](CCCNC(=N)N)NC(=O)[C@H](CCCNC(=N)N)NC(=O)[C@@H](N)CCCNC(=N)N)[C@@H](C)CC)[C@@H](C)CC)C(=O)O` [P4] (H-RRRAKKMRAIYLIMNRFKKYKI-OH; N-terminus and C-terminus assumed), the “Cytotoxicity at 50 μM (in words)” value was “significant cell death”.

In the case of “FAKLLLRLPALR [P1, peptide … derived from Crassostrea gigas mucous proteins, selected by machine learning]”, the “Cytotoxicity within the concentration range detected (in words)” value is reported as “no cytotoxicity”.
